Assay results published in patent US20240041832A1, “METHODS AND COMPOSITIONS FOR TREATING EYE DISEASES” (JENIVISION INC., priority 2021, published 2024).

Columns and labels:
[1] = Biodistribution of Beta-Carotene after periorbital skin administration (Example 4); assay type: in vivo, cynomolgus monkeys; details: for concentration at 3 h / concentration at 0.5 h / concentration at 6 h / concentration at 24 h: cynomolgus monkey, topical; for concentration at 3 h: 507.6 μg/left eye
Experimental: [The procedure below names another target; the source lists this target under the same test.] (§1) This is supported by results obtained with a markedly different compound docosahexaenoic acid (DHA), which are shown in Table 2. An oil solution comprising 14.85 mg/mL β-Carotene+198.02 mg/ml DHA in linoleic acid was administered to one eye (OD) by circumferential topical application to the periorbital skin that surrounds the anterior portion of the globe. Blood samples (1 mL) and were collected at 0, 0.5, 2, 6, and 24 hours after a single administration to the periorbital skin of the right eye (OD) At each of the above pre-designated time points, one animal was euthanized after blood collection and selected eye tissue samples were collected from both eyes. The following representative tissues were collected; upper eyelid, cornea, retina, and vitreous humor. DHA concentrations in the samples were determined by the LC-MS/MS method. The DHA was administered via NIODP at the dose of 6775.1±92.5 μg per eye (mean±SEM), to the left eye of monkeys in the pharmacokinetics and biodistribution study. Again, for convenience of sample processing, only upper eyelids were collected. Substantial quantities of DHA (>10 μg/g) remained in the upper eyelid/periorbital region, retina, and cornea, at all tested time points of 0.5, 3, 6 and 24-hour post dosing. […] Compared to the BLQ baseline, plasma concentrations of DHA were between 1.2 and 3.1 μg/ml, equivalent to […] (MW 328.5) via NIODP. The plasma Cmax was at 0.5 hours post-dose.
Thus, not all compounds are readily uptaken and distributed to the posterior area of the eye.

[2] = Biodistribution of DHA after periorbital skin administration (Example 4); assay type: in vivo, cynomolgus monkeys; details: for concentration at 0.5 h / concentration at 24 h / concentration at 3 h / concentration at 6 h: cynomolgus monkey, topical; for concentration at 0.5 h: 6567.89 μg/left eye; for concentration at 24 h: 6746.51 μg/left eye; for concentration at 3 h: 6768.26 μg/left eye; for concentration at 6 h: 7017.66 μg/left eye
Experimental: as §1

[3] = 0.5 h, 492.59 μg/left eye periorbital skin
[4] = 3 h, 507.60 μg/left eye periorbital skin
[5] = 6 h, 526.32 μg/left eye periorbital skin
[6] = 24 h, 505.99 μg/left eye periorbital skin
[7] = 0.5 h, 6567.89 μg/left eye periorbital skin
[8] = 3 h, 6768.26 μg/left eye periorbital skin
[9] = 6 h, 7017.66 μg/left eye periorbital skin
[10] = 24 h, 6746.51 μg/left eye periorbital skin

In the case of `CC1=C(/C=C/C(C)=C/C=C/C(C)=C/C=C/C=C(C)/C=C/C=C(C)/C=C/C2=C(C)CCCC2(C)C)C(C)(C)CCC1` [Beta-Carotene, β-Carotene], the “% of administered dose, Left cornea” value [1, 3] is reported as 0.000%, the “% of administered dose, Left retina” value [1, 3] is reported as 0.000% and the “% of administered dose, Left upper eyelid” value [1, 3] is reported as 0.19%. The “% of administered dose, Left vitreous humor” value [1, 3] was 0.000%, the “Drug Concentration in Plasma” value ([1]; 0.5 h, 492.59 μg/left eye periorbital skin, animal 101) was “BLQ” and the “% of administered dose, Left cornea” value [1, 4] was 0.000%. For the same compound, the “% of administered dose, Left retina” value [1, 4] was 0.000%, the “% of administered dose, Left upper eyelid” value [1, 4] was 0.44% and the “% of administered dose, Left vitreous humor” value [1, 4] was 0.000%. For the same compound, the “Drug Concentration in Plasma” value ([1]; 3 h, 507.60 μg/left eye periorbital skin, animal 102) was “BLQ”, the “% of administered dose, Left cornea” value [1, 5] was 0.000% and the “% of administered dose, Left retina” value [1, 5] was 0.000%. For the same compound, the “% of administered dose, Left upper eyelid” value [1, 5] was 0.000%, the “% of administered dose, Left vitreous humor” value [1, 5] was 0.000% and the “Drug Concentration in Plasma” value ([1]; 6 h, 526.32 μg/left eye periorbital skin, animal 103) was “BLQ”. For the same compound, the “% of administered dose, Left cornea” value [1, 6] was 0.000%, the “% of administered dose, Left retina” value [1, 6] was 0.000% and the “% of administered dose, Left upper eyelid” value [1, 6] was 0.000%. The “% of administered dose, Left vitreous humor” value [1, 6] was 0.000%, the “Drug Concentration in Plasma” value ([1]; 24 h, 505.99 μg/left eye periorbital skin, animal 104) was “BLQ” and the “uptake and biodistribution following periorbital administration” value ([1]; compared with DHA in the same formulation) was “not as readily uptaken and biodistributed”. It also gave a concentration at 3 h ([1]; cornea, 3 h, 507.60 μg/left eye periorbital skin, read-out: Drug Concentration in Tissue, Cornea) of 0 ng/g, a concentration at 0.5 h ([1]; cornea, 0.5 h, 492.59 μg/left eye periorbital skin, read-out: Drug Concentration in Tissue, Cornea) of 0 ng/g and a concentration at 6 h ([1]; cornea, 6 h, 526.32 μg/left eye periorbital skin, read-out: Drug Concentration in Tissue, Cornea) of 0 ng/g. For the same compound, the concentration at 24 h ([1]; cornea, 24 h, 505.99 μg/left eye periorbital skin, read-out: Drug Concentration in Tissue, Cornea) was 0 ng/g, the concentration at 3 h ([1]; retina, 3 h, 507.60 μg/left eye periorbital skin, read-out: Drug Concentration in Tissue, Retina) was 0 ng/g and the concentration at 0.5 h ([1]; retina, 0.5 h, 492.59 μg/left eye periorbital skin, read-out: Drug Concentration in Tissue, Retina) was 0 ng/g. The concentration at 6 h ([1]; retina, 6 h, 526.32 μg/left eye periorbital skin, read-out: Drug Concentration in Tissue, Retina) was 0 ng/g, the concentration at 24 h ([1]; retina, 24 h, 505.99 μg/left eye periorbital skin, read-out: Drug Concentration in Tissue, Retina) was 0 ng/g and the concentration at 3 h ([1]; upper eyelid, 3 h, 507.60 μg/left eye periorbital skin, read-out: Drug Concentration in Tissue, Upper eyelid) was 36000 ng/g. It also gave a concentration at 0.5 h ([1]; upper eyelid, 0.5 h, 492.59 μg/left eye periorbital skin, read-out: Drug Concentration in Tissue, Upper eyelid) of 12600 ng/g, a concentration at 6 h ([1]; upper eyelid, 6 h, 526.32 μg/left eye periorbital skin, read-out: Drug Concentration in Tissue, Upper eyelid) of 0 ng/g and a concentration at 24 h ([1]; upper eyelid, 24 h, 505.99 μg/left eye periorbital skin, read-out: Drug Concentration in Tissue, Upper eyelid) of 0 ng/g. For the same compound, the concentration at 3 h ([1]; vitreous humor, 3 h, 507.60 μg/left eye periorbital skin, read-out: Drug Concentration in Tissue, Vitreous humor) was 0 ng/g, the concentration at 0.5 h ([1]; vitreous humor, 0.5 h, 492.59 μg/left eye periorbital skin, read-out: Drug Concentration in Tissue, Vitreous humor) was 0 ng/g and the concentration at 6 h ([1]; vitreous humor, 6 h, 526.32 μg/left eye periorbital skin, read-out: Drug Concentration in Tissue, Vitreous humor) was 0 ng/g. The concentration at 24 h ([1]; vitreous humor, 24 h, 505.99 μg/left eye periorbital skin, read-out: Drug Concentration in Tissue, Vitreous humor) was 0 ng/g.

With `CC/C=C\C/C=C\C/C=C\C/C=C\C/C=C\C/C=C\CCC(=O)O` [DHA, docosahexaenoic acid] the maximum in retina ([2]; 0.5-hour post dosing) was 111 µg/g, the “% of administered dose, Left cornea” value [2, 7] was 0.03% and the “% of administered dose, Left retina” value [2, 7] was 0.04%. For the same compound, the “% of administered dose, Left upper eyelid” value [2, 7] was 0.42%, the “% of administered dose, Left vitreous humor” value [2, 7] was 0.00% and the “Drug Concentration in Plasma” value ([2]; 0.5 h, 6567.89 μg/left eye periorbital skin, animal 101) was 2160 ng/mL. For the same compound, the “% of administered dose, Left cornea” value [2, 8] was 0.01%, the “% of administered dose, Left retina” value [2, 8] was 0.04% and the “% of administered dose, Left upper eyelid” value [2, 8] was 0.38%. For the same compound, the “% of administered dose, Left vitreous humor” value [2, 8] was 0.00%, the “Drug Concentration in Plasma” value ([2]; 3 h, 6768.26 μg/left eye periorbital skin, animal 102) was 3130 ng/mL and the “% of administered dose, Left cornea” value [2, 9] was 0.01%. The “% of administered dose, Left retina” value [2, 9] was 0.01%, the “% of administered dose, Left upper eyelid” value [2, 9] was 0.01% and the “% of administered dose, Left vitreous humor” value [2, 9] was 0.00%. The “Drug Concentration in Plasma” value ([2]; 6 h, 7017.66 μg/left eye periorbital skin, animal 103) was 2110 ng/mL, the “% of administered dose, Left cornea” value [2, 10] was 0.02% and the “% of administered dose, Left retina” value [2, 10] was 0.03%. For the same compound, the “% of administered dose, Left upper eyelid” value [2, 10] was 0.02%, the “% of administered dose, Left vitreous humor” value [2, 10] was 0.00% and the “Drug Concentration in Plasma” value ([2]; 24 h, 6746.51 μg/left eye periorbital skin, animal 104) was 1150 ng/mL. The “DHA in vitreous humor” value ([2]; LLOQ 0.5 μg/ml) was “below the limit of quantification (BLQ)”, the “DHA in upper eyelid/periorbital region, retina and cornea” value ([2]; all tested time points of 0.5, 3, 6 and 24-hour, NIODP 6775.1±92.5 μg per eye) was over 10 µg/g and the concentration at 0.5 h ([2]; left cornea, 0.5 h, 6567.89 μg/left eye periorbital skin, read-out: Drug Concentration in Tissue, Left cornea) was 66300 ng/g. It also gave a concentration at 24 h ([2]; left cornea, 24 h, 6746.51 μg/left eye periorbital skin, read-out: Drug Concentration in Tissue, Left cornea) of 25900 ng/g, a concentration at 3 h ([2]; left cornea, 3 h, 6768.26 μg/left eye periorbital skin, read-out: Drug Concentration in Tissue, Left cornea) of 21600 ng/g and a concentration at 6 h ([2]; left cornea, 6 h, 7017.66 μg/left eye periorbital skin, read-out: Drug Concentration in Tissue, Left cornea) of 22300 ng/g. The concentration at 0.5 h ([2]; left retina, 0.5 h, 6567.89 μg/left eye periorbital skin, read-out: Drug Concentration in Tissue, Left retina) was 111000 ng/g, the concentration at 24 h ([2]; left retina, 24 h, 6746.51 μg/left eye periorbital skin, read-out: Drug Concentration in Tissue, Left retina) was 47300 ng/g and the concentration at 3 h ([2]; left retina, 3 h, 6768.26 μg/left eye periorbital skin, read-out: Drug Concentration in Tissue, Left retina) was 66700 ng/g. The concentration at 6 h ([2]; left retina, 6 h, 7017.66 μg/left eye periorbital skin, read-out: Drug Concentration in Tissue, Left retina) was 78600 ng/g, the concentration at 0.5 h ([2]; left upper eyelid, 0.5 h, 6567.89 μg/left eye periorbital skin, read-out: Drug Concentration in Tissue, Left upper eyelid) was 381000 ng/g and the concentration at 24 h ([2]; left upper eyelid, 24 h, 6746.51 μg/left eye periorbital skin, read-out: Drug Concentration in Tissue, Left upper eyelid) was 16200 ng/g. For the same compound, the concentration at 3 h ([2]; left upper eyelid, 3 h, 6768.26 μg/left eye periorbital skin, read-out: Drug Concentration in Tissue, Left upper eyelid) was 420000 ng/g, the concentration at 6 h ([2]; left upper eyelid, 6 h, 7017.66 μg/left eye periorbital skin, read-out: Drug Concentration in Tissue, Left upper eyelid) was 10700 ng/g and the concentration at 0.5 h ([2]; left vitreous humor, 0.5 h, 6567.89 μg/left eye periorbital skin, BLQ given 0, read-out: Drug Concentration in Tissue, Left vitreous humor) was 0 ng/g. For the same compound, the concentration at 24 h ([2]; left vitreous humor, 24 h, 6746.51 μg/left eye periorbital skin, BLQ given 0, read-out: Drug Concentration in Tissue, Left vitreous humor) was 0 ng/g, the concentration at 3 h ([2]; left vitreous humor, 3 h, 6768.26 μg/left eye periorbital skin, BLQ given 0, read-out: Drug Concentration in Tissue, Left vitreous humor) was 0 ng/g and the concentration at 6 h ([2]; left vitreous humor, 6 h, 7017.66 μg/left eye periorbital skin, BLQ given 0, read-out: Drug Concentration in Tissue, Left vitreous humor) was 0 ng/g. The concentration at 0.5 h ([2]; plasma, 0.5 h, 6567.89 μg/left eye periorbital skin, animal 101, read-out: Drug Concentration in Plasma) was 2200 ng/mL, the concentration at 24 h ([2]; plasma, 24 h, 6746.51 μg/left eye periorbital skin, animal 104, read-out: Drug Concentration in Plasma) was 1200 ng/mL and the concentration at 3 h ([2]; plasma, 3 h, 6768.26 μg/left eye periorbital skin, animal 102, read-out: Drug Concentration in Plasma) was 3100 ng/mL. For the same compound, the concentration at 6 h ([2]; plasma, 6 h, 7017.66 μg/left eye periorbital skin, animal 103, read-out: Drug Concentration in Plasma) was 2100 ng/mL and the “dose gradient via NIODP” value ([2]; periorbital skin) was “eyelid≈retina>cornea>>vitreous humor=0”.
